The target of one data set is T1, PC7 (Homo sapiens, UniProt Q16549).
T1 construct: PC7 (Pro44-Thr667, UNP[41] Q16549); made in house
T1 sequence (Q16549 142-667 limits assumed): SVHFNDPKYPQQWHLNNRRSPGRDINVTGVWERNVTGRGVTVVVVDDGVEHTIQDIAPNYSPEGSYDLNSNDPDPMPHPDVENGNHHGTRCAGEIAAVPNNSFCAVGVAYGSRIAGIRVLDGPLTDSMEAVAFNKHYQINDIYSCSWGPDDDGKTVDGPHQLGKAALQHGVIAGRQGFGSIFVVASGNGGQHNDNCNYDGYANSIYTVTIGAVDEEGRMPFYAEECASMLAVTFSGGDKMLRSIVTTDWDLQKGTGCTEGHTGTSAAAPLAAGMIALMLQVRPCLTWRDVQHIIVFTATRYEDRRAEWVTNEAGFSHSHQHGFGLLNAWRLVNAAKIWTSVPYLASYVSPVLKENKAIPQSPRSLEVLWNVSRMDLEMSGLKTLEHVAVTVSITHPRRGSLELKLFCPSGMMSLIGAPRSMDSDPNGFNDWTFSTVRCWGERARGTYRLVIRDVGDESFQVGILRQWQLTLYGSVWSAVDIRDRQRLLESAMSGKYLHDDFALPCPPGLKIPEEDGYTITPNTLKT
Briefly: Enzyme kinetics with fluorogenic substrate pyr-ERTKR-AMC, PC7. Type of data set: biochemical. The conditions noted are these: for potency loss / increase of the Ki for PC7 compared with furin: Ki PC7 versus Ki furin; for Ki: competitive inhibition model, constant inhibitor concentration, substrate dilution series, triplicate. How it is done: (§1) HEK293S cells were stably transfected with the coding sequences of human furin,[20] PC5/6 (Arg33-Gly634, UNP[41] Q92824) and PC7 (Pro44-Thr667, UNP[41] Q16549) cloned into the pCDNA3.1(+) vector (ThermoFisher). Cells were grown in DMEM (4.5 g L^–1 glucose, 2 mM L-glutamine, 110 mg l^–1 sodium pyruvate, 3.7 g L^–1 NaHCO3, nonessential amino acids) supplemented with 10% (v/v) FBS. Polyclonal selection of stable cell lines was conducted in the presence of 500 μg mL^–1 G418 (Geneticin). The cells were grown in multilayer flasks (HyperFlask M, Corning) without G418 for large-scale protein expression. The medium of confluent expression cultures was exchanged with DMEM supplemented with 2 mM sodium butyrate as well as with FBS (2% (v/v), furin) or without FBS (PC5/6 and PC7). The medium exchange was repeated five (furin) or two (PC5/6 and PC7) times, and the centrifuged medium (20 min, 5500 g, 4 °C) was stored at −80 °C until further use.
The purification of human furin from a conditioned medium has been shown previously.[20] PC5/6 and PC7 were purified by immobilized metal affinity chromatography and gel permeation chromatography (GPC), as shown for furin but excluding the inhibitor affinity purification step.[20] PC7 (50 μg mL^–1) was fully activated in 50 mM Tris/HCl, at pH 7.5, 10 mM CaCl2, and 0.15 M NaCl, at pH 7.5, in the presence of 2.0 μg mL^–1 thermolysin for 16 h at 37 °C. To remove thermolysin, the reaction mixture was concentrated in an ultrafiltration device (30 kDa cutoff, amicon, Millipore) and subjected to GPC (both steps at 4 °C). Purified PC5/6 and PC7 were stored at −20 °C.
Enzyme kinetic measurements were performed in 100 mM HEPES/NaOH, at pH 7.0, 2 mM CaCl2, and 0.2% (v/v) Triton X 100 with the fluorogenic substrate pyr-ERTKR-7-amino-4-methylcoumarin (Bachem) at 37 °C. The 100 μL reactions were prepared in 96-well black half-area plates (Corning), preincubated for 15 min at 37 °C and measured in a 96-well plate reader (Tecan infinite 200) at excitation and emission wavelengths of 380 and 460 nm. Because of the autofluorescence of inhibitor 1, the Ki values were determined at constant inhibitor concentrations (1: 20 μM for furin, 15 μM for PC5/6 and 50 μM for PC7; 2: 10 μM for furin, 5 μM for PC5/6 and 15 μM for PC7) and 1:2 dilution series of the substrate (Figure S7). The KM values were determined with 1:2 dilution series of the substrate in the absence of an inhibitor (4.7 ± 0.4 μM for furin, 2.5 ± 0.2 μM for PC5/6, and 19.3 ± 0.8 μM for PC7; Figure S7). Enzyme kinetic data were evaluated with GRAPHPAD PRISM (GraphPad Software) using the prebuild “Michaelis–Menten” model to calculate KM and a competitive inhibition model (v = Vmax × S/[S + KM(1 + I/Ki)]; v = reaction velocity, Vmax = maximum velocity, S = substrate concentration, KM = Michaelis–Menten constant, Ki = inhibition constant) for Ki determination. All measurements were performed in triplicate.

The target in another data set is T2, PC5/6 (Homo sapiens, UniProt Q92824).
T2 construct: PC5/6 (Arg33-Gly634, UNP[41] Q92824); made in house; host or cells: HEK293S cells, stably transfected (pCDNA3.1(+)), purified from conditioned medium
T2 sequence (Q92824 33-634): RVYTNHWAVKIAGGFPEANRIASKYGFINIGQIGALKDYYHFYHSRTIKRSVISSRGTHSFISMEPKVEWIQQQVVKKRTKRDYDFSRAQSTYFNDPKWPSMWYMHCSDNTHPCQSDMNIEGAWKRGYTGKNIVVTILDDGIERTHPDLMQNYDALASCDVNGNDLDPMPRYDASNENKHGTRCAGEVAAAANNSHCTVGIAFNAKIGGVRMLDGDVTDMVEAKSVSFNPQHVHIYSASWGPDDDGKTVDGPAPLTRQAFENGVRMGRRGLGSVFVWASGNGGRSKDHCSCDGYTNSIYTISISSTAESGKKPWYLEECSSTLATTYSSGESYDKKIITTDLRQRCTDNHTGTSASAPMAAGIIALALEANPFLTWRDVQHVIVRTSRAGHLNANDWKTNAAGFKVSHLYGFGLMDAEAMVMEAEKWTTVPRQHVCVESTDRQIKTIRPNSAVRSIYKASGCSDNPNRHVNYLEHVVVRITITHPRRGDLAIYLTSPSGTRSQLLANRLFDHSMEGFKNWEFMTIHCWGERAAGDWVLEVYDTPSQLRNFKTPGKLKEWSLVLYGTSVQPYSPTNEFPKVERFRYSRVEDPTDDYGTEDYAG
As to the kind of experiment: Enzyme kinetics with fluorogenic substrate pyr-ERTKR-AMC, PC5/6. Type of data set: biochemical. Particulars: pH 7.0, 37 °C; for Ki: competitive inhibition model, constant inhibitor concentration, substrate dilution series, triplicate. The method, then:
as §1
(§2) The purification of human furin from a conditioned medium has been shown previously.[20] […]
(§3) Enzyme kinetic measurements were performed in 100 mM HEPES/NaOH, at pH 7.0, 2 mM CaCl2, and 0.2% (v/v) Triton X 100 with the fluorogenic substrate pyr-ERTKR-7-amino-4-methylcoumarin (Bachem) at 37 °C. The 100 μL reactions were prepared in 96-well black half-area plates (Corning), preincubated for 15 min at 37 °C and measured in a 96-well plate reader (Tecan infinite 200) at excitation and emission wavelengths of 380 and 460 nm. […] The KM values were determined with 1:2 dilution series of the substrate in the absence of an inhibitor (4.7 ± 0.4 μM for furin, 2.5 ± 0.2 μM for PC5/6, and 19.3 ± 0.8 μM for PC7; Figure S7). Enzyme kinetic data were evaluated with GRAPHPAD PRISM (GraphPad Software) using the prebuild “Michaelis–Menten” model to calculate KM and a competitive inhibition model (v = Vmax × S/[S + KM(1 + I/Ki)]; v = reaction velocity, Vmax = maximum velocity, S = substrate concentration, KM = Michaelis–Menten constant, Ki = inhibition constant) for Ki determination. […]

The target of data set [1] is T3, human furin (Homo sapiens, UniProt P09958).
T3 construct: made in house; host or cells: HEK293S cells, stably transfected (pCDNA3.1(+)), purified from conditioned medium
T3 sequence (P09958 108-574 limits assumed): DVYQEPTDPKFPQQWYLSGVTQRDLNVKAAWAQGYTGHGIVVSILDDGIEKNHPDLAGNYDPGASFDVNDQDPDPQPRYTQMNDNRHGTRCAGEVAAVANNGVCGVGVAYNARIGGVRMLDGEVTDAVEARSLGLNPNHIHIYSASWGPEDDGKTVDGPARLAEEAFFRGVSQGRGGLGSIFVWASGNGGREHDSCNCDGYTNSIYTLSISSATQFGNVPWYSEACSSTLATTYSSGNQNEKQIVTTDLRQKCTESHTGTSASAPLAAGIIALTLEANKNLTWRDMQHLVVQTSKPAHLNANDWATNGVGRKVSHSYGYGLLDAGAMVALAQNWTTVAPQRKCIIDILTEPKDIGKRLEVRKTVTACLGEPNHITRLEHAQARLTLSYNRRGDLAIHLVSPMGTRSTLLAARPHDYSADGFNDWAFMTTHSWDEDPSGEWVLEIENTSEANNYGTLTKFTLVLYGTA
Briefly: Enzyme kinetics with fluorogenic substrate pyr-ERTKR-AMC, furin. Type of data set: biochemical. Particulars: pH 7.0, 37 °C; for Ki: competitive inhibition model, constant inhibitor concentration, substrate dilution series, triplicate. The method, then:
as §1, §2, §3

Data set [2] deals with T3, human furin. As to the kind of experiment: Crystallography-based inhibitor titration of furin crystals (occupancy refinement). The format is binding. The method, then:
Because of the lower number of specific interactions, we assumed that the binding affinity of 2 for the S4 pocket is lower as compared to the S1 pocket. […] The strength of the electron density directly correlates to the occupation of the binding sites with the inhibitor. Indeed, we found the S1 pocket already occupied by 2 at 0.4 mM as indicated by the occupancy of 75% from crystallographic refinement (Table S2). […] The refined occupancy of inhibitor 2 at the S1 pocket at 40 mM concentration was 0.94. It should be noted that water molecules occupy the substrate binding pockets in absence of any ligand.[22] The binding sites of these water molecules overlap with the binding sites of the inhibitors and affect crystallographic occupancy refinement. Thus, the refined occupation should always be considered in context with the electron density (Figure 6C–E). […] We also observed a third binding site of 2 and 3 outside of the substrate binding cleft. Here, two inhibitor molecules are stacked between two arginine residues of a crystal contact. This binding mode is specific for the crystal lattice and thus is not expected to occur in solution (Figure S5B, D).
The optimized soaking solutions contained either 1.0 M NaCl, 200 mM Mes/NaOH, at pH 5.5, 10% (w/v) PEG8000, and 20% (v/v) DMSO or 0.25 M NaCl, 200 mM Mes/NaOH, at pH 5.5, 20% (w/v) PEG8000, and 20% (v/v) DMSO and were supplemented with the specific inhibitors. Inhibitors 1 and 2 were soaked at 20 mM concentration in 1 M NaCl containing soaking solution for 0.5 h. Inhibitor 3 and 4 were soaked in 0.25 M NaCl containing soaking solution for 0.5 h at an inhibitor concentration of 100 mM and 20 mM, respectively. For the inhibitor titration experiments with 2, 40 mM, 4 mM, or 0.4 mM of the inhibitor was soaked for 0.5 h in 0.25 M NaCl-containing soaking solution. Soaked crystals were flash cooled in liquid N2. Diffraction data collection was performed at the synchrotron beamline BL14.2[33] (BESSY-II) of Helmholtz-Zentrum Berlin (HZB). The data were processed using XDS[34] with XDS-APP[35] (v2.0) and the CCP4 program suite[36] (v.7.1.001). COOT[37] (v.0.8.9.2) was used for model building. Refinement was performed in PHENIX[38] (v1.18.2) using the PDB ID 5JXG([22]) as an initial model. One specific Rfree-set (initially generated up to 1.0 Å, ref ([22])) was transferred to the data sets prior refinement start. Geometry restraints of the inhibitors were obtained from the PRODRG server[39] and from the GRADE Web server (http://grade.globalphasing.org). All guanylhydrazones were modeled in the E configuration, which is in agreement with previous studies with model compounds.[40] Electron density omit maps were calculated in PHENIX[38] (v1.18.2). PYMOL was used for molecular graphics (http://www.pymol.org) and structural alignments. In the case of inhibitor titration experiments with 2, the structure was first built and refined for a crystal soaked at 40 mM. This structure was used to calculate refinements with (for occupancy calculation) and without (for omit map calculation) an inhibitor in the model for three additional crystals independently soaked at 40 mM, 4 mM, and 0.4 mM (Table S2) obtaining R/Rfree-values of 17.3/19.0, 17.5/19.1, and 17.7/19.3, respectively. The occupancy refinement yielded consistent B-factors between the three differently soaked structures (Table S2). Structure factors and coordinates of the complexes of furin with inhibitors 1, 2, at 1 M NaCl; 2 at 0.25 M NaCl; and 3 and 4 have been deposited as PDB entries 7O1U, 7O1W, 7O1Y, 7O20, and 7O22, respectively.

In another data set the target is furin. The conditions noted are these: read-out: Ki furin (reported), cited from earlier work.
The conditions of data set [3]: ref 29; cited from earlier work.
The mark [4] stands for this setting: 0.4 mM inhibitor, 0.25 M NaCl soak.
Where [5] appears, read: 0.4 mM inhibitor, 0.25 M NaCl soak, * very weak electron density.
Where [6] appears, read: 4 mM inhibitor, 0.25 M NaCl soak.
[7] abbreviates: 40 mM inhibitor, 0.25 M NaCl soak.
Where [8] appears, read: absence of inhibitor, 1:2 dilution series of the substrate.

The values that follow come from PMC8453481, “OFF-State-Specific Inhibition of the Proprotein Convertase Furin” (ACS Chemical Biology, 2021).

Read-outs that look alike come from different tables or passages of the source.

Turning to `C/C(=N\NC(=N)N)c1cc(N)cc(/C(C)=N/NC(=N)N)c1` [inhibitor 1], the “potency loss / increase of the Ki for PC7 compared with furin” value on PC7 is on record as around 7 fold. Also, the Ki (commonly the equilibrium dissociation constant of an inhibitor or competing ligand from its target) came out at 22.4 ± 1.9 µM on PC7 (pH 7.0, 37 °C); 3.6 ± 0.2 µM at PC5/6; 3.3 ± 0.1 µM at human furin [1].

In the case of `N=C(N)N/N=C/c1ccc(/C=N/NC(=N)N)cc1` [inhibitor 2], the “potency loss / increase of the Ki for PC7 compared with furin” value at PC7 was around 3 fold. Further, the Ki at PC7 (pH 7.0, 37 °C) amounted to 10.4 ± 0.7 µM; on PC5/6, 1.7 ± 0.2 µM; at human furin [1], 3.1 ± 0.2 µM. Also, on human furin [2] (setting [4]), the “occupancy at S1 pocket” value is recorded as 75%. Moreover, the “refined occupancy, molecule 1, S1 pocket” value at human furin [2] (setting [4]) is 0.75; on human furin [2] (setting [6]) it was 0.87; on human furin [2] (setting [7]), 0.94. Also, the “refined occupancy, molecule 2, S4 pocket” value is listed as 0.39 at human furin [2] (setting [5]), 0.63 at human furin [2] (setting [6]) and 0.82 on human furin [2] (setting [7]). The “refined occupancy, molecule 3, crystal contact site” value on human furin [2] (setting [5]) came to 0.35; on human furin [2] (4 mM inhibitor, 0.25 M NaCl soak, * very weak electron density) it was 0.38; at human furin [2] (setting [7]) it was 0.66. For the same molecule, the “occupancy at S4 pocket” value turned out to be 63% at human furin [2] (setting [6]) and 82% at human furin [2] (setting [7]). Further, the “apparent dissociation constant at the S4 binding site” value at human furin [2] (estimated from inhibitor titration of crystals, 0.25 M NaCl) is “low millimolar range”.

Regarding `C/C(=N\NC(=N)N)c1ccccc1` [inhibitor 3], the Ki on furin (ref 26) is 273 µM.

On to `N=C(N)N/N=C/c1ccccc1OCc1ccc(Cl)cc1` [inhibitor 4], for which the Ki on furin (ref 24) is 11.8 µM; on furin (ref 26), 25.3 µM.

Take “pyr-ERTKR-7-amino-4-methylcoumarin [reference compound]”: the Km (as a rule, the concentration of substrate that gives half-maximal velocity) at PC7 (absence of inhibitor, 1:2 dilution series of the substrate, pH 7.0, 37 °C) was 19.3 ± 0.8 µM; on PC5/6 (setting [8]), 2.5 ± 0.2 µM; at human furin [1] (setting [8]) it was 4.7 ± 0.4 µM.

With `N=C(N)N/N=C/c1c(Cl)cccc1Cl` [guanabenz], the pKa (in general, the pH at which an ionisable group is half protonated) in data set [3] is reported as 8.1.
